Reference: PubChem BioAssay AID652156 (NMMLSC, 2013)

What follows are molecules tested on ER-HoxA9 myeloid cells, GFP+/MAC1+ differentiation, flow cytometry (assay: inducers of GFP+/MAC1+ differentiation in arrested progenitors – ER-HoxA9 cells, flow cytometry, Powder Set01, dose response (AID 652156)).

EC50, active:
O=C(CCNC(=O)c1ccc(Cl)cc1)NC1CCCc2ccccc21 (stereo not drawn) 2.09 µM
Cc1ccc(Nc2nc(=O)c3cccnc3s2)c(Br)c1 0.93 µM
O=C(O)c1cccnc1Nc1ccc(Cl)cc1 1.33 µM
